ChEMBL document CHEMBL1145006 (J Med Chem, 2003)
Positions of bridges follow the written chain, without caps; N, C: chain ends. Non-standard residues stand in square brackets, D forms with d. Residues, ends and D or L forms follow the SMILES beside them. Hyp = O=C(O)[C@@H]1C[C@@H](O)CN1

Experiments:
Type in all cases: cell-based
[1] = molecular target: Somatostatin receptor type 2 (Homo sapiens, UniProt P30874); assay: Binding affinity towards human Somatostatin receptor type 2 (sst2) using Tyr11-[125I]-SRIF as radioligand was determined in CHO cells
Chain of Somatostatin receptor type 2 (P30874 whole entry): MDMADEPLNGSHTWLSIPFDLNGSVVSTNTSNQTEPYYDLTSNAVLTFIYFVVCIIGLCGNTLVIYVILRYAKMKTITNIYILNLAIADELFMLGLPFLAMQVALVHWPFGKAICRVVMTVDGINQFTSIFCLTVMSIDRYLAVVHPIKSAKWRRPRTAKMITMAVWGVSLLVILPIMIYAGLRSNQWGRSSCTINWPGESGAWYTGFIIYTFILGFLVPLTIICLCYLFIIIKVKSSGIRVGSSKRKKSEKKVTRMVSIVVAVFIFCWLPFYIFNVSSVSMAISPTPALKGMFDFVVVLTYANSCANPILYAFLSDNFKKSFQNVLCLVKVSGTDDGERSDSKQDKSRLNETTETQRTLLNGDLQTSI

[2] = molecular target: Somatostatin receptor type 4 (Homo sapiens, UniProt P31391); assay: Binding affinity towards human Somatostatin receptor type 4 (sst4) using Tyr11-[125I]-SRIF as radioligand was determined in CHO cells; conditions: for Log Ki: cho
Chain of Somatostatin receptor type 4 (P31391 whole entry): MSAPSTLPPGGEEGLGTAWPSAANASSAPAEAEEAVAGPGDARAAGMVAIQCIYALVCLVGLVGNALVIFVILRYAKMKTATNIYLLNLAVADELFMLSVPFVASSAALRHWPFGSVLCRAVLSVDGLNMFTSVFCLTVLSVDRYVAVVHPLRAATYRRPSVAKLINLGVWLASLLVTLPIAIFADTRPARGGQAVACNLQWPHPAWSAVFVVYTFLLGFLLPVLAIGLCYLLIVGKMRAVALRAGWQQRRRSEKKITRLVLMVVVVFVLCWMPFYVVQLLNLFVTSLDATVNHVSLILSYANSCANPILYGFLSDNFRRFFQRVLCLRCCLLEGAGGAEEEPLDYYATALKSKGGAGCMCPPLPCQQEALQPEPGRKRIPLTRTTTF

[3] = molecular target: Somatostatin receptor type 5 (Homo sapiens, UniProt P35346); assay: Binding affinity towards human Somatostatin receptor type 5 (sst5) using Tyr11-[125I]-SRIF as radioligand was determined in COS cell
Chain of Somatostatin receptor type 5 (P35346 whole entry): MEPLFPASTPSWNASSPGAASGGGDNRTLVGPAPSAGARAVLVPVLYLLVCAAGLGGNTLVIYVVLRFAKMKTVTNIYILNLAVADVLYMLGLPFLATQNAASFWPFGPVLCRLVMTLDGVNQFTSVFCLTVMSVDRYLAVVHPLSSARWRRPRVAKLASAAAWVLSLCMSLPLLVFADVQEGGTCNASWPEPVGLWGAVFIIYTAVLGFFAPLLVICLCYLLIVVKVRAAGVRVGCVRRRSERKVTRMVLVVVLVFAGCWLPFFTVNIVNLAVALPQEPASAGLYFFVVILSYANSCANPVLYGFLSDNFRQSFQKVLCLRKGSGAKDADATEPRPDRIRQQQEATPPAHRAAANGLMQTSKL

[4] = molecular target: Somatostatin receptor type 3 (Homo sapiens, UniProt P32745); assay: Binding affinity towards human Somatostatin receptor type 3 (sst3) using Tyr11-[125I]-SRIF as radioligand was determined in CHO cells
Chain of Somatostatin receptor type 3 (P32745 whole entry): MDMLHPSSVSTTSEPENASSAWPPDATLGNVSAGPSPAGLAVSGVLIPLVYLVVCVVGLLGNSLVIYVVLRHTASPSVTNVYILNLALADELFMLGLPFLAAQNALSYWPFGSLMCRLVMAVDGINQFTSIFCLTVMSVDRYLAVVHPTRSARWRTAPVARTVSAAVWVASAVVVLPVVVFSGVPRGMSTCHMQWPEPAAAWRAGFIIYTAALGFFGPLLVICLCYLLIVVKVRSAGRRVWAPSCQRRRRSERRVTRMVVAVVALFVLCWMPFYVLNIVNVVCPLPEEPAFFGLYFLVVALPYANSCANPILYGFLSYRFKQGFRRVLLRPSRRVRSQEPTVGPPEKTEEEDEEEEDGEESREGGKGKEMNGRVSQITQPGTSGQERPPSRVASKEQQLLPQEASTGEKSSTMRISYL

[5] = molecular target: Somatostatin receptor type 1 (Homo sapiens, UniProt P30872); assay: Binding affinity towards human Somatostatin receptor type 1 (sst1) using Tyr11-[125I]-SRIF as radioligand was determined in CHO cells
Chain of Somatostatin receptor type 1 (P30872 whole entry): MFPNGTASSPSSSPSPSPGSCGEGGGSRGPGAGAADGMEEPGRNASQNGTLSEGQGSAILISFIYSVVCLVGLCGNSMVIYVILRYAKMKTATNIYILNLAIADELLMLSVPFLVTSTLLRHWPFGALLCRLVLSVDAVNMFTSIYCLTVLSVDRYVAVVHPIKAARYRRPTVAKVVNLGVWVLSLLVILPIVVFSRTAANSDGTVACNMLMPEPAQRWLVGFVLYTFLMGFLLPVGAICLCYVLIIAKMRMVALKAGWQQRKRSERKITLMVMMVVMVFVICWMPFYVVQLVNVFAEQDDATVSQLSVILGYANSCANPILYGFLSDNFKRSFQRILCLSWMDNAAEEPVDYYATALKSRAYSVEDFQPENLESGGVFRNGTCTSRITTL

SMILES	Ki [1] [nM]	Log Ki [2]	Ki [3] [nM]	Ki [4] [nM]	Ki [5] [nM]	Ki [2] [nM]
C[C@H](N)C(=O)N[C@@H](C)C(=O)N[C@H]1CSSC[C@@H](C(N)=O)NC(=O)[C@H](CO)NC(=O)[C@H]([C@@H](C)O)NC(=O)[C@H](Cc2ccccc2)NC(=O)[C@H]([C@@H](C)O)NC(=O)[C@H](CCCCN)NC(=O)[C@H](Cc2c[nH]c3ccccc23)NC(=O)[C@H](Cc2ccccc2)NC(=O)[C@H](Cc2ccccc2)NC(=O)[C@H](CC(N)=O)NC(=O)[C@H](CCCCN)NC1=O (H-AACKNFFWKTFTSC-NH2; disulfide 3-14)	0.158	> -9.7	1.26	0.794	0.2	–
NCCCC[C@@H]1NC(=O)[C@@H](Cc2c[nH]c3ccccc23)NC(=O)[C@H](Cc2ccc(O)cc2)NC(=O)[C@@H]2C[C@@H](OC(=O)NCCN)CN2C(=O)[C@H](Cc2ccccc2)NC(=O)[C@H](Cc2ccc(OCc3ccccc3)cc2)NC1=O	0.794	> -7	0.251	0.631	1.58	–
NCCCCCNC(=O)O[C@@H]1C[C@H]2C(=O)N[C@@H](Cc3ccccc3)C(=O)N[C@H](Cc3c[nH]c4ccccc34)C(=O)N[C@@H](CCCCN)C(=O)N[C@@H](Cc3ccc(OCc4ccccc4)cc3)C(=O)N[C@@H](Cc3ccccc3)C(=O)N2C1	3.16	–	0.631	2	10	631
C[C@H](N)C(=O)NCC(=O)N[C@H]1CSSC[C@@H](C(N)=O)NC(=O)[C@H](CO)NC(=O)[C@H]([C@@H](C)O)NC(=O)[C@H](Cc2ccccc2)NC(=O)[C@H](C)NC(=O)[C@H](CCCCN)NC(=O)[C@H](Cc2c[nH]c3ccccc23)NC(=O)[C@H](Cc2ccccc2)NC(=O)[C@H](Cc2ccccc2)NC(=O)[C@H](CC(N)=O)NC(=O)[C@H](CCCCN)NC1=O (H-AGCKNFFWKAFTSC-NH2; disulfide 3-14)	1	> -8.4	0.631	1.58	6.31	–
C[C@H](N)C(=O)NCC(=O)N[C@H]1CSSC[C@@H](C(N)=O)NC(=O)[C@H](CO)NC(=O)[C@H](C)NC(=O)[C@H](Cc2ccccc2)NC(=O)[C@H]([C@@H](C)O)NC(=O)[C@H](CCCCN)NC(=O)[C@H](Cc2c[nH]c3ccccc23)NC(=O)[C@H](Cc2ccccc2)NC(=O)[C@H](Cc2ccccc2)NC(=O)[C@H](CC(N)=O)NC(=O)[C@H](CCCCN)NC1=O (H-AGCKNFFWKTFASC-NH2; disulfide 3-14)	1.26	> -9.2	0.398	0.631	0.501	–
NCCCC[C@@H]1NC(=O)[C@@H](Cc2c[nH]c3ccccc23)NC(=O)[C@H](Cc2c[nH]cn2)NC(=O)[C@@H]2C[C@@H](OC(=O)NCCN)CN2C(=O)[C@H](Cc2ccccc2)NC(=O)[C@H](Cc2ccc(OCc3ccccc3)cc2)NC1=O	0.794	> -7	3.16	0.794	3.98	–
CN(C)CCNC(=O)O[C@@H]1C[C@H]2C(=O)N[C@@H](Cc3ccccc3)C(=O)N[C@H](Cc3c[nH]c4ccccc34)C(=O)N[C@@H](CCCCN)C(=O)N[C@@H](Cc3ccc(OCc4ccccc4)cc3)C(=O)N[C@@H](Cc3ccccc3)C(=O)N2C1	0.501	> -7	0.1	0.316	1.58	–
C[C@H](N)C(=O)NCC(=O)N[C@H]1CSSC[C@@H](C(N)=O)NC(=O)[C@H](CO)NC(=O)[C@H]([C@@H](C)O)NC(=O)[C@H](Cc2ccccc2)NC(=O)[C@H]([C@@H](C)O)NC(=O)[C@H](C)NC(=O)[C@H](Cc2c[nH]c3ccccc23)NC(=O)[C@H](Cc2ccccc2)NC(=O)[C@H](Cc2ccccc2)NC(=O)[C@H](CC(N)=O)NC(=O)[C@H](CCCCN)NC1=O (H-AGCKNFFWATFTSC-NH2; disulfide 3-14)	1000	–	100	1000	1000	> 1000
C[C@H](N)C(=O)NCC(=O)N[C@H]1CSSC[C@@H](C(N)=O)NC(=O)[C@H](C)NC(=O)[C@H]([C@@H](C)O)NC(=O)[C@H](Cc2ccccc2)NC(=O)[C@H]([C@@H](C)O)NC(=O)[C@H](CCCCN)NC(=O)[C@H](Cc2c[nH]c3ccccc23)NC(=O)[C@H](Cc2ccccc2)NC(=O)[C@H](Cc2ccccc2)NC(=O)[C@H](CC(N)=O)NC(=O)[C@H](CCCCN)NC1=O (H-AGCKNFFWKTFTAC-NH2; disulfide 3-14)	0.0794	> -10	0.794	0.631	0.158	–
CC(C)[C@@H]1NC(=O)[C@H](CCCCN)NC(=O)[C@@H](Cc2c[nH]c3ccccc23)NC(=O)[C@H](Cc2ccc(O)cc2)NC(=O)[C@@H](NC(=O)[C@H](N)Cc2ccccc2)CSSC[C@@H](C(=O)N[C@@H](Cc2c[nH]c3ccccc23)C(N)=O)NC1=O [VAPREOTIDE] (H-[dF]CY[dW]KVCW-NH2; disulfide 2-7)	0.0794	–	–	20	158	158
C[C@@H](O)[C@@H]1NC(=O)[C@H](CCCCN)NC(=O)[C@@H](Cc2c[nH]c3ccccc23)NC(=O)[C@H](Cc2ccccc2)NC(=O)[C@@H]2C[C@@H](O)CN2C(=O)[C@H](Cc2ccccc2)NC1=O (cyclo(F[Hyp]F[dW]KT))	0.2	–	> 1000	200	> 1000	> 1000
CC(C)[C@@H]1NC(=O)[C@H](CCCCN)NC(=O)[C@@H](Cc2c[nH]c3ccccc23)NC(=O)[C@H](Cc2ccc(O)cc2)NC(=O)[C@H](C)N(C)C(=O)[C@H](Cc2ccccc2)NC1=O [SEGLITIDE]	–	–	12.6	31.6	> 1000	–
C[C@H](N)C(=O)NCC(=O)N[C@H]1CSSC[C@@H](C(N)=O)NC(=O)[C@H](CO)NC(=O)[C@H]([C@@H](C)O)NC(=O)[C@H](Cc2ccccc2)NC(=O)[C@H]([C@@H](C)O)NC(=O)[C@H](CCCCN)NC(=O)[C@H](Cc2c[nH]c3ccccc23)NC(=O)[C@H](Cc2ccccc2)NC(=O)[C@H](C)NC(=O)[C@H](CC(N)=O)NC(=O)[C@H](CCCCN)NC1=O (H-AGCKNAFWKTFTSC-NH2; disulfide 3-14)	20	> -7.1	100	200	126	–
C[C@@H](O)[C@@H]1NC(=O)[C@H](CCCCN)NC(=O)[C@@H](Cc2c[nH]c3ccccc23)NC(=O)[C@H](Cc2ccccc2)NC(=O)[C@@H]2CCCN2C(=O)[C@H](Cc2ccccc2)NC1=O	–	> -7	–	–	–	–
C[C@H](N)C(=O)NCC(=O)N[C@H]1CSSC[C@@H](C(N)=O)NC(=O)[C@H](CO)NC(=O)[C@H]([C@@H](C)O)NC(=O)[C@H](Cc2ccccc2)NC(=O)[C@H]([C@@H](C)O)NC(=O)[C@H](CCCCN)NC(=O)[C@H](C)NC(=O)[C@H](Cc2ccccc2)NC(=O)[C@H](Cc2ccccc2)NC(=O)[C@H](CC(N)=O)NC(=O)[C@H](CCCCN)NC1=O (H-AGCKNFFAKTFTSC-NH2; disulfide 3-14)	1000	–	79.4	1000	1000	> 1000
CC(C)[C@@H]1NC(=O)[C@H](CCCCN)NC(=O)[C@@H](Cc2c[nH]c3ccccc23)NC(=O)[C@H](Cc2ccc(O)cc2)NC(=O)[C@@H](NC(=O)[C@H](N)Cc2ccc3ccccc3c2)CSSC[C@@H](C(=O)N[C@H](C(N)=O)[C@@H](C)O)NC1=O [LANREOTIDE]	–	–	–	–	501	–
